Results reported in patent publication US8268369B2, “Compositions and methods for treating hypercholesterolemia using Ortanique peel extract” (The University of the West Indies, priority 2008, dated 2012).
Marks after values point to notes of the source that are not given here.

What was measured:
glutathione transferase = assay: Glutathione transferase activity in organs of rats; type: in vivo; conditions: hypercholesterolemic rats
glutathione reductase = assay: Glutathione reductase activity in organs of rats; type: in vivo; conditions: hypercholesterolemic rats
[1] = tested on: diet-induced hypercholesterolemic rats; assay: Kidney function: serum creatinine and urea; conditions: comparison among the groups
glutathione peroxidase = assay: Glutathione peroxidase activity in organs of rats; type: in vivo; conditions: hypercholesterolemic rats

`O=C(O)c1cccnc1` [niacin] was tested, and the “Glutathione Transferase Activity, Brain” value (glutathione transferase; brain) was 0.28 ± 0.04^a nmol/min/mg protein, the “Glutathione Transferase Activity, Heart” value (glutathione transferase; heart) was 0.21 ± 0.011^a nmol/min/mg protein and the “Glutathione Transferase Activity, Kidney” value (glutathione transferase; kidney) was 0.20 ± 0.05^b nmol/min/mg protein. For the same compound, the “Glutathione Transferase Activity, Spleen” value (glutathione transferase; spleen) was 0.16 ± 0.07^b nmol/min/mg protein, the “Glutathione Reductase Activity, Brain” value (glutathione reductase; brain) was 14.95 ± 1.67^a nmol/min/mg protein and the “Glutathione Reductase Activity, Heart” value (glutathione reductase; heart) was 12.53 ± 0.85^a nmol/min/mg protein. The “Glutathione Reductase Activity, Kidney” value (glutathione reductase; kidney) was 12.36 ± 0.10^a nmol/min/mg protein, the “Glutathione Reductase Activity, Spleen” value (glutathione reductase; spleen) was 49.48 ± 3.32^a nmol/min/mg protein and the “level of serum creatinine” value [1] was “no significant differences”. The “level of serum urea” value [1] was “no significant differences”, the “Glutathione Peroxidase Activity, Brain” value (glutathione peroxidase; brain) was 0.59 ± 0.18^a nmol/min/mg protein and the “Glutathione Peroxidase Activity, Heart” value (glutathione peroxidase; heart) was 5.14 ± 0.63^a nmol/min/mg protein. The “Glutathione Peroxidase Activity, Kidney” value (glutathione peroxidase; kidney) was 3.35 ± 1.30^a nmol/min/mg protein and the “Glutathione Peroxidase Activity, Spleen” value (glutathione peroxidase; spleen) was 0.21 ± 0.034^a nmol/min/mg protein.
